Experimental findings from US20020026053A1, “Novel 3-(substituted) -2- indolinones compounds and use thereof as inhibitors of protein kinase activity” (priority 1997, published 2002) are described below.

Molecules are shown by their SMILES.

The target in this experiment is T1, Met receptor (EGFR/Met chimeric cells, EMR) (Homo sapiens, UniProt P08581).
T1 construct: expressed in transfected cells; the other entry of the earlier key: EGFR (P00533, Epidermal growth factor receptor)
T1 sequence (P08581 with tags, fused parts or gaps): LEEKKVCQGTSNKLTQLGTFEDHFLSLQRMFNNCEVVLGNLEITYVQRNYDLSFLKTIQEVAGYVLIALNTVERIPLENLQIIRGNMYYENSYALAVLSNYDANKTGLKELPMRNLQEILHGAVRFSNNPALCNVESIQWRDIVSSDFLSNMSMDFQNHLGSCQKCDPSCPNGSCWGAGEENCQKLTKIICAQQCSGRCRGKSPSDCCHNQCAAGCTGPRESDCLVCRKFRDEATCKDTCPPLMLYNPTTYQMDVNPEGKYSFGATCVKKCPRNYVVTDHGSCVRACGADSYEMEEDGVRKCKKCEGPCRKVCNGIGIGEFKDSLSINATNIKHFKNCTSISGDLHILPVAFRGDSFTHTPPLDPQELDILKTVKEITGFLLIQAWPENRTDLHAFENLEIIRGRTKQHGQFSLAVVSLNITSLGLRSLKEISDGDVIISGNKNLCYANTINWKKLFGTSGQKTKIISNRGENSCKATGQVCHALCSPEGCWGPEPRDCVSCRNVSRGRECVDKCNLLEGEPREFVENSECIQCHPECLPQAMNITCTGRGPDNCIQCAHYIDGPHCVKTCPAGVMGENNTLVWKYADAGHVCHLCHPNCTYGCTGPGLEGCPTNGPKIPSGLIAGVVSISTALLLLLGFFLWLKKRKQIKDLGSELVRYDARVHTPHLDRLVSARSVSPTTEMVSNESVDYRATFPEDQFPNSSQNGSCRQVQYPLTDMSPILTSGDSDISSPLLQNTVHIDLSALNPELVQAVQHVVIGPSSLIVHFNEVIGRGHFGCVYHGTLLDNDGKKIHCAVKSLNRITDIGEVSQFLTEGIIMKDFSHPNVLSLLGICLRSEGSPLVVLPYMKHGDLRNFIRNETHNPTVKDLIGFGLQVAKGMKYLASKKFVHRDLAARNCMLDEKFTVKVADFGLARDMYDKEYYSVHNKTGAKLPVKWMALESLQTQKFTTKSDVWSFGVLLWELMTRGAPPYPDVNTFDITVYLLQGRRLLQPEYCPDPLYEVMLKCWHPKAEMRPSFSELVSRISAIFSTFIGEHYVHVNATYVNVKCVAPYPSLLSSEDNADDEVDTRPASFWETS
Briefly: Met Autophosphorylation Assay. It is filed as biochemical. Conditions: protocol P.130. In outline: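 Transiently transfected EGFR/Met chimeric (EMR) cells were lysed in HNTG with 1 mM PMSF. Met was captured on plates coated with goat anti-rabbit IgG, then rabbit anti-Met (C-28), using 90 μg lysate/100 μl for 60 min at room temperature. Phosphotyrosine was read by ELISA.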
In the case of `Cc1c(Br)cc(Br)c2c1C(=Cc1ccc(C(C)C)cc1)C(=O)N2` [10738/H10], the “Met Kinase % Inhibition (P.130)” value was found to be 27.7%.
Then `O=C1Nc2ccc(S(=O)(=O)N3CCOCC3)cc2C1=Cc1ccc(OCc2ccccc2)cc1` [10739/F04], with 30.4%; and `Cc1c(Br)cc(Br)c2c1C(=Cc1cc(O)c(O)c(O)c1)C(=O)N2` [10739/H07], with 93.7%.
In the case of `Cc1c(Br)ccc2c1C(=Cc1cc(O)c(O)c(O)c1)C(=O)N2` [10739/C07], the “Met Kinase % Inhibition (P.130)” value amounted to 93.0%.
Then `COc1ccc(C=C2C(=O)Nc3c(Br)cc(Br)c(C)c32)cc1C` [10739/H02], with 26.6%; and `O=C1Nc2ccc(I)cc2C1=Cc1cccc(OCc2ccccc2)c1` [10739/B03], with 62.4%.
Under `COc1ccc(C=C2C(=O)Nc3ccc(I)cc32)cc1C` [10739/B02] stands 68.1%; under `CN(C)CCCOc1ccc(C=C2C(=O)Nc3ccc(CCCl)cc32)cc1` [10739/G09], 46.1%; under `Cc1c(Br)ccc2c1C(=Cc1ccc(CO)o1)C(=O)N2` [10739/C11], 61.0%.
`O=C1Nc2ccc(S(=O)(=O)Nc3ccc(C(F)(F)F)cc3)cc2C1=CC1COc2ccccc2O1` (stereo not shown) [10739/E05]: the “Met Kinase % Inhibition (P.130)” value worked out at 8.9%.
